{"source": "patent EP0105106A2", "about": "“Anti-bacterial composition” (DAITO KOEKI KABUSHIKI KAISHA, priority 1982, dated 1984)", "key": {"[1]": {"test_system": "Staphylococcus aureus 209P", "experiment": "Anti-bacterial test, Chequer board method", "format": "cell-based", "procedure": "Tests for anti-bacterial properties were conducted on compositions of the sample of chitosan and SMX, mixed according to the mixing ratios shown in Tables 1 through 3, respectively.\nAs strains to be tested, there are used Staphylococcus aureus 209P (a typical example of Gram positive bacteria), Escherichia coli NIHJ (a typical example of Gram negative bacteria) and Pseudomonas aeruginosa 3456.\nThe combined effects obtained by the present tests were determined in accordance with the Chequer board method with reference to the knowledges of Bushby et al (Bushby, S.R.M. & G.H. Hitchings: Trimethoprim. a sulfonamide potentiator. Brit. J. pharm. Chemother 33: 72 ~ 90, 1968) and Bohni et al (Bohni. E: Vergleichende bakteriologishe Untersuchungen mit der Kombination Trimethoprim/Sulfamethoxazol in vitro und in vivo. Chemotherapy. Suppl ad. 14: 1 21, 1969), both of whom reporting the combined effect between sulfamethoxazole (SMX) and trimethoprim (TMP), both of which are noted on the market at present. The results of the tests are shown in Table 1 through 3, respectively."}, "[2]": {"test_system": "Escherichia coli NIHJ", "experiment": "Survival of mice infected with Escherichia coli", "format": "in vivo, ICR mice (male)", "settings": "in 28 hours; dosage of SMX of 5 or 10 mg in two hours after the infection", "from_the_text": "A strain of Escherichia coli NIHJ is floated in physiologic saline, and a mixture solution containing the strain of Escherichia coli NINJ and 4% mucin, being equal in absorbance to each other is produced. ICR mice (male) were fed with […] this mixture solution containing the bacteria. As the result, all examples of the mice infected with the strain of Escherichia coli (intra Peritoneal administration of 5 ~ 10 times LDso in mice) died in twelve hours (The first contrast group). Subsequently, 80 m 90% of the group of mice on the dosage of SMX of 5 or 10 mg in two hours after the infection were still alive in 24 hours. The rate of survival of the group of mice decreased to 10 ~ 20% in 28 hours."}}}
{"smiles": "Cc1cc(NS(=O)(=O)c2ccc(N)cc2)no1", "note": "[SMX, sulfamethoxazol]", "values": [{"measurement": "MIC", "setting": "[1]; Staphylococcus aureus, 209P, SMX solely used, in a test tube, read-out: minimum inhibition concentration (MIC) of SMX", "result": 50, "unit": "µg/mL"}, {"measurement": "MIC of SMX", "setting": "[1]; chitosan added at a rate of 2.5 µg/mℓ", "result": 3.1, "unit": "µg/mL"}, {"measurement": "anti-bacterial action is increased", "setting": "[1]; chitosan added at a rate of 2.5 µg/mℓ, versus SMX solely used", "result": "about 16 times SMX"}, {"measurement": "rate of survival", "setting": "[2]", "result": "10 ~ 20%"}]}
